pKi: −log10 of the molar value. Where two headings read alike, the source gives them in different places.
Legend:
NodST [1] = molecular target: T1, NodST (Sinorhizobium meliloti, UniProt P06236); test: Continuous spectrophotometric coupled-enzyme assay of NodST with βAST-IV PAPS regeneration; assay type: biochemical, Rhizobium melioti
T1 sequence (P06236 1-247): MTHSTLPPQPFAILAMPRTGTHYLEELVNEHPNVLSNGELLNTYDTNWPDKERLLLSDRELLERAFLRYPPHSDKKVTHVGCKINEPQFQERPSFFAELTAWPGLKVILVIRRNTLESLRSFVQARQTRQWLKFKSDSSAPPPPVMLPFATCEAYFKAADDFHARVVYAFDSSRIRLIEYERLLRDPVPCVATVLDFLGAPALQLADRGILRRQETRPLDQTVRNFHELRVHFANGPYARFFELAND
Protocol: 100 mM bis-tris propane-HCl, pH 7.0, 5 mM 2-mercaptoethanol, 20 μM PAPS, 2 mM p-nitrophenyl sulfate, 3.0 mU NodST, 6.4 mU β-AST IV, and substrate are combined to a total volume of 500 μL. Because commercial PAPS contains significant amounts of PAP, the assay solution is incubated for 30 minutes at 20° C. prior to addition of substrate. The evolution of p-nitrophenol is monitored at 400 nm for 10 minutes.
All reactions were run in a total volume of 500 μL at 25° C. […] The amount of NodST added to each series of acceptor concentrations is varied over 1.2, 1.8, 3.0, and 4.2 mU. Because commercial PAPS contains significant amounts of PAP, the assay solution is incubated for 30 minutes at 20° C. prior to addition of substrate. The evolution of p-nitrophenol is monitored at 400 nm for 10 minutes.
3.0 mU of NodST was used in each reaction. The Km for each series of PAP concentrations was calculated and the values were compared.

NodST [2] = molecular target: T1, NodST; details: non-coupled radioisotope thin-layer chromatography assay, 100 μM PAPS; read-out: published Km of acceptor for NodST; cited from earlier work
NodST [3] = molecular target: T1, NodST; details: Lin et al. 1995; read-out: Ki, PAP inhibition of NodST; cited from earlier work
βAST-IV = molecular target: T2, βAST-IV (Rattus norvegicus, UniProt P17988); test: Reverse-physiological reaction of βAST-IV (PAPS from PAP and p-nitrophenyl sulfate); assay type: biochemical; details: 10 mM p-nitrophenyl sulfate, pH 7.0, 25° C.
T2 construct: made in house; host or cells: E. coli BL21(DE3)
Protocol: All capillary zone electrophoresis (CZE) was run in 0.23 M borate in running buffer at pH 7.8. The column was pre-washed with H2 O (1 min), 1 N NaOH (1 min), and running buffer (2 min). The sample was pressure injected at 20 psi sec and electrophoresis was run with 20.0 kV (- to +) at 20° C. with detection at 260 nm. CZE of 1 mM standards PAPS, PAP, and 3'-adenosine monophosphate (3'-AMP) were run to determine retention times. The reverse-physiological reaction assay mixture, a 500 μL solution containing 50 mM bis-tris propane-HCl buffer at pH 7.0, 1 mM 2-mercaptoethanol, 10 mM p-nitrophenyl sulfate, and 1 mM PAP at 25° C., was subjected to CZE prior to addition of enzyme (t=0). 5 mU βAST-IV was added and CZE was repeated 30 minutes after initiation. The reaction was then diluted 100-fold and CZE was run again. A 2.0 μL internal standard of 10 mM PAPS was added, and CZE was repeated.
βAST-IV activity in the reverse-physiological reaction was determined at 25° C. with a total volume of 500 μL. The reverse-physiological assay above was used with varying PAP concentration (15.6, 31.3, 62.5, 125, 250, 500 μM). Measurement of initial velocity was conducted over 10 seconds at 400 nm, and an extinction coefficient of 1064 was used to calculate p-nitrophenol concentration at pH 7.0. […]

[4] = system: hydroxysteroid sulfotransferase; details: Marcus et al. 1980, cited from earlier work
[5] = aqueous solution at pH 8.0; cited from earlier work
NodST [6] = molecular target: T1, NodST; details: read-out: Km of NodST for PAPS; preliminary study
Protocol: To ensure that our coupled assay provides a steady-state PAPS concentration that is much greater than the Km of NodST, the Km experiments above were conducted with varying concentrations of PAPS to verify PAPS saturation. […] A previously published study using a radioisotopic thin-layer chromatography method to determine kinetic values of NodST maintained 100 μM PAPS concentration for all assays. Given that AST-IV maintains a constant concentration of PAPS through recycling, it is disclosed that 20 μM PAPS reaction concentration is sufficient for saturation conditions to maintain steady-state.

T2 sequence (P17988 whole entry): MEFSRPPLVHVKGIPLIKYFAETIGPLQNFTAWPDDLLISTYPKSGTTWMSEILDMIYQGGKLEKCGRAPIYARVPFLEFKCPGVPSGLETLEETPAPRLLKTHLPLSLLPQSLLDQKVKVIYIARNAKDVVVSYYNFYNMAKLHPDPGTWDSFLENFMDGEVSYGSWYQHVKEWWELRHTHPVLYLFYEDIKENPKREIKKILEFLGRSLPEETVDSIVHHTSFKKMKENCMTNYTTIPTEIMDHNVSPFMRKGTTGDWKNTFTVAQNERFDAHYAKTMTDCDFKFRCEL

CC(=O)N[C@H]1[C@H](O[C@H]2[C@@H](O)[C@@H](CO)O[C@@H](O[C@H]3[C@H](O)[C@@H](NC(C)=O)C(O)O[C@@H]3CO)[C@@H]2O)O[C@H](CO)[C@@H](O[C@@H]2O[C@H](CO)[C@H](O)[C@H](O)[C@H]2O)[C@@H]1O (stereo partly drawn) [LacNAc dimer, Galβ(1,4)GlcNAcβ(1,3) Galβ(1,4)GlcNAc]
increase in acceptor specificity from LacNAc to the LacNAc dimer (NodST [1]; NodST, coupled assay): sixty-fold increase

CC(=O)N[C@H]1[C@H](O[C@H]2[C@H](O)[C@@H](NC(C)=O)[C@H](O[C@H]3[C@H](O)[C@@H](NC(C)=O)C(O)O[C@@H]3CO)O[C@@H]2CO)O[C@H](CO)[C@@H](O[C@@H]2O[C@H](CO)[C@@H](O[C@@H]3O[C@H](CO)[C@@H](O)[C@H](O)[C@H]3NC(C)=O)[C@H](O)[C@H]2NC(C)=O)[C@@H]1O (stereo partly drawn) [N,N',N",N'",N""-pentaacetylchito-pentaose]
Km (NodST [2]): 190 µM

CC(=O)N[C@H]1[C@H](O[C@H]2[C@H](O)[C@@H](NC(C)=O)C(O)O[C@@H]2CO)O[C@H](CO)[C@@H](O[C@@H]2O[C@H](CO)[C@@H](O[C@@H]3O[C@H](CO)[C@@H](O)[C@H](O)[C@H]3NC(C)=O)[C@H](O)[C@H]2NC(C)=O)[C@@H]1O (stereo partly drawn) [N,N',N",N'"-tetraacetylchitotetraose]
Km (NodST [2]): 140 µM
kcat of acceptor with NodST (NodST [1]; apparent value, coupled assay, 20 μM PAPS, pH 7.0): 0.328 s⁻¹
acceptor specificity for NodST, ranking among substrates (NodST [1]; coupled assay, among N-acetyl chitoses, LacNAc and LacNAc dimer): best substrate

CC(=O)N[C@H]1[C@H](O[C@H]2[C@H](O)[C@@H](NC(C)=O)C(O)O[C@@H]2CO)O[C@H](CO)[C@@H](O[C@@H]2O[C@H](CO)[C@@H](O)[C@H](O)[C@H]2NC(C)=O)[C@@H]1O (stereo partly drawn) [N,N',N"-triacetylchitotriose]
kcat of acceptor with NodST, PAPS concentration study (NodST [1]; 20, 40 and 100 μM PAPS, all three within 10% variation, 3.0 mU NodST): ~23.6 s⁻¹

Nc1ncnc2c1ncn2[C@@H]1O[C@H](COP(=O)(O)O)[C@@H](OP(=O)(O)O)[C@H]1O [PAP, adenosine 3',5'-diphosphate]
pKi (NodST [3]): 7.00
Vmax of βAST-IV as a function of PAP concentration (βAST-IV): 6.04 ± 0.24 µmol/min
enzyme product inhibition of sulfotransferases [4]: low-micromolar levels
pKi ([4]; read-out: Ki, PAP inhibition of hydroxysteroid sulfotransferase): 4.85

Nc1ncnc2c1ncn2[C@@H]1O[C@H](COP(=O)(O)OS(=O)(=O)O)[C@@H](OP(=O)(O)O)[C@H]1O [PAPS, 3'-phosphoadenosine-5'-phosphosulfate]
half-life of PAPS in aqueous solution [5]: approximately 20 hours
Km (NodST [6]): < 0.1 µM
